Results: US12264164B2, “Method of treatment of symptoms of menopause” (KaNDy Therapeutics Limited, priority 2018, dated 2025)

Test system: post-menopausal women experiencing moderate to severe vasomotor symptoms
Experiment: Efficacy assessments in the Phase 1b/2 study
Assay type: in vivo, human
Details: hard gelatin drug product, 150 mg once daily (three 50 mg capsules), doses tested 50-300 mg for 14 days
Description: There were 13 or 15 subjects per dose group.
Repeat once-a-day dosing of 150 mg Compound A gave a geometric mean exposure AUC0-24 5164 ng.hr/mL of the drug at Day 14.

Structure (SMILES): Cc1cc(F)ccc1-c1cc(N2C[C@H]3COCCN3C[C@H]2CO)ncc1N(C)C(=O)C(C)(C)c1cc(C(F)(F)F)cc(C(F)(F)F)c1 [Compound A, 2-[3,5-Bis(trifluoromethyl)phenyl]-N-{4-(4-fluoro-2-methylphenyl)-6-[(7S,9aS)-7-(hydroxymethyl)hexahydropyrazino[2,1-c][1,4]oxazin-8(1H)-yl]-3-pyridinyl}-N,2-dimethylpropanamide]
- efficacy assessments: maximum efficacy
